Measurements reported in ChEMBL document CHEMBL5308504, “Tm Shift (DSF) assay results for EUbOPEN Chemogenomics Library” (2023).
Values joined by “and” are separate entries in the source; they are usually repeats but may differ in a detail not shown here. Equal values may be shown once.

Assays:
[1] = molecular target: T1, Peregrin (Homo sapiens) (UniProt P55201); details: Compound concentration 20.0 uM, Protein concentration 2.0 uM, Result type QC Liability
T1 sequence (whole entry): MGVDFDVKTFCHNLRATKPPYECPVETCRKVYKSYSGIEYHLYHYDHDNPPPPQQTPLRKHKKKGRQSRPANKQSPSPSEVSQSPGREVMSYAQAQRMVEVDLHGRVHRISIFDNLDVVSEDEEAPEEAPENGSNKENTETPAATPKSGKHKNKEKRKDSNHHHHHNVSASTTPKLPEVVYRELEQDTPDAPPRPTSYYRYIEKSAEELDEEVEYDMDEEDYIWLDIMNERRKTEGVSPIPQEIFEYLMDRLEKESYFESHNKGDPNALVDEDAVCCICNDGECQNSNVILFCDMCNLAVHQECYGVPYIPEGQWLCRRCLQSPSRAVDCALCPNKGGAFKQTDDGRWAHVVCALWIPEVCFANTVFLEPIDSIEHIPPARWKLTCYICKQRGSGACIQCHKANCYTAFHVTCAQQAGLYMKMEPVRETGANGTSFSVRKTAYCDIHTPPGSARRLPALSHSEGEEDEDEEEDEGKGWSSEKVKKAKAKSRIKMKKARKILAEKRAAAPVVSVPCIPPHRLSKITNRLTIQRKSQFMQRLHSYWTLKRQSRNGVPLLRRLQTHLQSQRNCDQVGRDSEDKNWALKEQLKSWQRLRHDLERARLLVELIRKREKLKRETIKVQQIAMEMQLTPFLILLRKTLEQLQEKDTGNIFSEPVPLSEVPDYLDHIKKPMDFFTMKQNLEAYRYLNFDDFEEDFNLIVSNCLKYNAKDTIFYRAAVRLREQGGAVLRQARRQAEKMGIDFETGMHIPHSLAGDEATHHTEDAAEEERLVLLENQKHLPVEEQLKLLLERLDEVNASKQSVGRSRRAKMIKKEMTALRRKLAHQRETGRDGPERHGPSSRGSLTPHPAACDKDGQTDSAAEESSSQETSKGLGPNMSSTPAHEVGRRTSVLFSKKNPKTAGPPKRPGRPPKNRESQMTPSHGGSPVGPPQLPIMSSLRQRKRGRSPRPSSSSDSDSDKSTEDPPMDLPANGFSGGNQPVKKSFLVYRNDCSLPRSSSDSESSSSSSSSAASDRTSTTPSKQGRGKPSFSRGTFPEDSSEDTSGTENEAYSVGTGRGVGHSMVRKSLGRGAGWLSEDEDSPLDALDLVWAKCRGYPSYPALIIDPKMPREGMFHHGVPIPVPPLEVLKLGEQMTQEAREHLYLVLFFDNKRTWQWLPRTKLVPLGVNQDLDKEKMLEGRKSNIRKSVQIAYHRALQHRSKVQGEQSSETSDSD

[2] = molecular target: Fibroblast growth factor receptor 3 (Homo sapiens) (UniProt P22607); details: Compound concentration 20.0 uM, Protein concentration 2.0 uM, Result type QC Liability
Chain of Fibroblast growth factor receptor 3 (Homo sapiens) (P22607 23-806 limits assumed): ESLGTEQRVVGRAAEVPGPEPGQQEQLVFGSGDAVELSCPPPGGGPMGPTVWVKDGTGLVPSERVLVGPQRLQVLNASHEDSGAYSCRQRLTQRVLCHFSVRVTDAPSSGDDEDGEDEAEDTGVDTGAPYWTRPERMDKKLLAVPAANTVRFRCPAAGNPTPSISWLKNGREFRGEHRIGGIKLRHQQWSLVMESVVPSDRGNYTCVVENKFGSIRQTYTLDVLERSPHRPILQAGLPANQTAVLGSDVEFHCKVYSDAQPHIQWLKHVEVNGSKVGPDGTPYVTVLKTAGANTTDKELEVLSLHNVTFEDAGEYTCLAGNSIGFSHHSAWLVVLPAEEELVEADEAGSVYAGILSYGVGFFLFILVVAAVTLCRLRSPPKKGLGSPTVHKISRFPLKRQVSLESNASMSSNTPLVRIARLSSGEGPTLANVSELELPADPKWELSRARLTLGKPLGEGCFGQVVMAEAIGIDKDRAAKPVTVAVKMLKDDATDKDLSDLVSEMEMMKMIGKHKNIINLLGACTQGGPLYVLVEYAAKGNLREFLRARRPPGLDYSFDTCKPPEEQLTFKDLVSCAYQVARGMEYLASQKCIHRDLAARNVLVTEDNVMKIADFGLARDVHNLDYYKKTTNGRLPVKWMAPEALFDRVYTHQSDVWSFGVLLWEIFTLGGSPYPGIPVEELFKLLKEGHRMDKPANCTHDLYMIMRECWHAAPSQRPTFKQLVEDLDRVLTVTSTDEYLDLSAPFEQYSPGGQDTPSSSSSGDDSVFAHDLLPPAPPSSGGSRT
Description: Thermal Shift Assay. Domain: start/stop: P449-E759

Row | SMILES | ΔTm [1] | ΔTm [2]
1 | Cc1cc2c(ncn2C2(C)CN(C(=O)c3ccn(CC4CCN([C@H]5C=CCCCC5)CC4)c3)C2)c(N)n1 | -0.47 °C | 0.4 °C
2 | Cc1nn(-c2ccccc2)c(Nc2ccccc2C(=O)O)c1-c1cc2nccnc2c(F)c1F | -2.93 °C | 1.95 °C
3 | CNCc1ccc(-c2cc(-c3nc(-c4ccc(S(=O)(=O)C(C)C)cc4)cnc3N)on2)cc1 | -0.8 °C | -1.35 °C
4 | Cn1c(C2(NC(=O)c3ccc4c(C5CCCC5)c(-c5ncc(Br)cn5)n(C)c4c3)CCC2)nc2ccc(/C=C/C(=O)O)cc21 | -4.81 °C and -4.1 °C | -0.02 °C and -0.48 °C
5 | C[C@H](CCOc1cccc(CC(=O)O)c1)N(Cc1cccc(C(F)(F)F)c1Cl)CC(c1ccccc1)c1ccccc1 | -4.82 °C | 2.11 °C
6 | CN1C(=O)c2ccccc2N(C)c2nc(Nc3cnn(C4CCNCC4)c3)ncc21 | -0.9 °C | 6.58 °C
7 | Cn1nc(C(=O)NCc2ccc(C(=O)O)cc2)cc1-c1ccc2[nH]ccc2c1 | -1.95 °C | 0.9 °C
8 | C=CC(=O)Nc1cc(-c2nn(C3CCC(N4CCN(C(C)=O)CC4)CC3)c3ncnc(N)c23)ccc1Oc1ccccc1 (stereo unspecified) | -1.27 °C | 1.74 °C
9 | C=C[C@@]12CCc3cc(O)ccc3[C@H]1CC[C@@]1(C)[C@H]2CC[C@@H]1O | -6.72 °C | 0.31 °C
10 | Cc1c(N2CCCC2)nc2ccc(Br)cc2c1C(=O)NC[C@H](CCC(=O)O)c1ccccc1Cl | -3.23 °C and -0.94 °C | 0.24 °C and 1.08 °C
11 | O=C1Nc2ccc(I)cc2/C1=C/c1cc(Br)c(O)c(Br)c1 | -0.58 °C | 0.51 °C
12 | CNC(=O)COc1cc2cc(Nc3nc(N4C[C@H](C)C[C@H](C)C4)ncc3Cl)ccc2n(C)c1=O | -2.08 °C | 0.62 °C
13 | CN[C@@H](C)C(=O)N[C@H](C(=O)N1CCC[C@H]1C(=O)Nc1sc(-c2ncco2)nc1-c1ccccc1)C1CCCCC1 | -1.67 °C | 0.43 °C
14 | CN(C)CC#Cc1ccc2[nH]c3c(c2c1)-c1nc(N)ncc1CCC3 | -0.87 °C | 3.51 °C
15 | Cn1ncc(-c2nc(N[C@H]3CC[C@H](N)CC3)ncc2Cl)c1CC1CC1 | -1.56 °C | 1.76 °C
16 | CC(C)N(CCCCOCC(=O)O)c1cnc(-c2ccccc2)c(-c2ccccc2)n1 | -4.18 °C | -0.51 °C
17 | O=C(Cc1ccccc1)Nc1nnc(N2C[C@H]3C[C@@H]2CN3c2cccnn2)s1 | -0.88 °C | 0.46 °C
18 | O=C(Nc1ccc(OC(F)(F)Cl)cc1)c1cnc(N2CC[C@@H](O)C2)c(-c2cc[nH]n2)c1 | -3.77 °C | 0.66 °C
19 | Cc1ccccc1Oc1cc(-n2c(=O)cc(C(F)(F)F)[nH]c2=O)c2ccccc2c1Cl | -1.36 °C | 0.76 °C
20 | CO[C@H]1CC[C@H](N(c2cc(F)c(Oc3ncc(Cn4nccn4)cc3C(F)(F)F)cc2C(=O)O)C(=O)[C@H]2CC[C@H](C)CC2)CC1 | -4.09 °C | 0.62 °C
21 | O=C(O)c1ccc(CN2C[C@@H]3C[C@H]2CN3Cc2ccc(Oc3ccc(-c4ncco4)cc3)cc2)cc1 | -2.16 °C | 0.44 °C
22 | CCc1cnn2c(NCc3ccc[n+]([O-])c3)cc(N3CCCCC3CCO)nc12 (stereo unspecified) | -1.7 °C | 1.49 °C
23 | C[C@@H]1CC[C@@]2(OC1)O[C@H]1[C@@H](O)[C@H]3[C@@H]4CC[C@H]5C[C@@H](O[C@@H]6O[C@H](CO)[C@H](O[C@@H]7O[C@H](CO)C(O)[C@H](O[C@@H]8OC[C@@H](O)[C@H](O)[C@H]8O)[C@H]7O[C@@H]7O[C@H](CO)[C@H](O)[C@H](O[C@@H]8O[C@H](CO)[C@@H](O)[C@H](O)[C@H]8O)[C@H]7O)[C@H](O)[C@H]6O)[C@H](O)C[C@]5(C)[C@H]4CC[C@]3(C)[C@H]1[C@@H]2C (stereo partly specified) | -1.35 °C | 0.72 °C
24 | Cc1nsc(Nc2cnc(C(F)(F)F)cn2)c1C(=O)Nc1ccc(O[C@H]2CCCN(CC(F)(F)F)C2)nc1 | -3.38 °C | 1.39 °C

Row | SMILES | ΔTm [1] | ΔTm [2]
25 | CN1CC(=O)N(C)c2cnc(Nc3ccc(NC(=O)Nc4cccc(C(=O)O)c4)cc3)nc21 | -0.81 °C | 1.19 °C
26 | N#Cc1ccc(COc2ccc(Br)cc2CNCCO)cn1 | 0.18 °C | 0.63 °C
27 | CC(C)Nc1ncnc2cc(OCc3cccc([S@@](C)(=N)=O)c3)c(Br)cc12 | -2.23 °C | 1.64 °C
28 | CNC(=O)c1ccc(C)c(-n2c(C)cc(OCc3ccc(F)cc3F)c(Br)c2=O)c1 | -1.84 °C | -1.16 °C
29 | CN(C(=O)CCOCCOCCOCCOCCNc1cccc2c1C(=O)N(C1CCC(=O)NC1=O)C2=O)[C@H]1CC[C@@]2(C)[C@@H](CC[C@@H]3[C@@H]2CC[C@]2(C)[C@@H](c4ccc5ccncc5c4)CC[C@@H]32)C1 (stereo partly specified) | 3.76 °C | 1.42 °C
30 | COc1c(OCCCN2CCOCC2)ccc2c1N=C(NC(=O)c1cnc(N)nc1)N1CCN=C21 | -0.93 °C | 0.63 °C
31 | CC(C)(O)[C@H]1CC[C@H](Nc2ccc3ncc(-c4cccc(C(F)(F)F)c4)n3n2)CC1 | 3.48 °C | 0.8 °C
32 | COc1ccc(S(=O)(=O)N2CCOCC2)cc1Nc1ccc2c(n1)N(C1CCOCC1)[C@H](C)C(=O)N2C | 0.21 °C | 0.08 °C
33 | O=C(Cc1ccccc1)Nc1nnc(N2CC[C@@H]3[C@H]2CN3c2cccnn2)s1 | -0.69 °C | 0.51 °C
34 | CCC(C)(C)CC[C@H](NC(=O)N1CCOCC1)C(=O)NC1(C#N)CCN(C)CC1 | -3.19 °C | 0.71 °C
35 | CC(C)S(=O)(=O)c1ccccc1Nc1nc(N[C@@H]2CCCN(CCCCCCCNC(=O)COc3cccc4c3C(=O)N(C3CCC(=O)NC3=O)C4=O)C2)ncc1Cl (stereo partly specified) | 0.63 °C | 7.81 °C
36 | CCOCCn1cc(C(=O)Nc2ccc(-n3nc(-c4cccnc4)cc3C(F)(F)F)cn2)ccc1=O | -3.33 °C | 0.41 °C
37 | CCCS(=O)(=O)N[C@H]1C[C@@H](N(C)c2ncnc3[nH]ccc23)C1 | -1.75 °C | 1.73 °C
38 | COc1cc2ncnc(Nc3ccc4c(cnn4Cc4ccccc4)c3)c2cc1OC | -1.65 °C | 1.75 °C
39 | C[C@H](CCC(=O)O)[C@H]1CC[C@H]2[C@@H]3[C@H](O)C[C@@H]4C[C@H](O)CC[C@]4(C)[C@H]3C[C@H](O)[C@]12C | -2.19 °C | 0.75 °C
40 | COc1cc(C(=O)NCCOCCOCCOCC(=O)N[C@H](C(=O)N2C[C@@H](O)C[C@H]2C(=O)NCc2ccc(-c3scnc3C)cc2)C(C)(C)C)ccc1Nc1ncc(C(F)(F)F)c(Oc2cccc3c2C(=O)CC3)n1 | 1.72 °C | 1.69 °C
41 | CC(C)S(=O)(=O)c1ccccc1Nc1nc(N[C@@H]2CCCN(CCCCCCCNC(=O)COc3cccc4c3C(=O)N(C3CCC(=O)N(C)C3=O)C4=O)C2)ncc1Cl (stereo partly specified) | -2.55 °C | 8.15 °C
42 | COc1cc2nc(C)nc(NC3(c4ccccc4)CC3)c2cc1OC | -3.11 °C | 0.4 °C
43 | Cc1cccc(CC(=O)N2CCc3c2ccc(-c2cn(C)c4ncnc(N)c24)c3F)n1 | -2.12 °C | -0.88 °C
44 | CC[C@H](Nc1c(C#N)c(-c2ccc(-c3cccc(C)c3F)cc2)nc2cnccc12)C(=O)O | -1.54 °C | -0.1 °C
45 | COc1cc2nc(-c3cc(F)ccc3O)nc(N[C@@H]3CNC[C@H]3C(C)(C)O)c2cc1OC | 0.34 °C | 1.8 °C
46 | O=C(NCCN1CCOCC1)c1ccc2nn(CCOc3ccc(Cl)cc3)cc2c1 | -2.21 °C | 1.58 °C
47 | O=C(O)[C@]1(Cc2cccc(Nc3nccs3)n2)CC[C@@H](Oc2cccc(Cl)c2F)CC1 | -3.28 °C | 6.09 °C
48 | CCCS(=O)(=O)Nc1ccc(F)c(Nc2ncnc3cnc(-n4cnc(C)c4)nc23)c1F | 0.01 °C | 1.06 °C
